Assay results taken from ChEMBL document CHEMBL6071133, “Discovery of novel penetrating peptides able to target human leukemia and lymphoma for enhanced PROTAC delivery” (Eur J Med Chem, 2024).
Square brackets hold non-standard residues; d marks the D form. Peptide text beside a SMILES is read from it. Bta = N[C@@H](Cc1csc2ccccc12)C(=O)O

Experiments:
Type in all cases: ADME, cell-based
[1] = Drug uptake in human K562 cells assessed as membrane penetration by measuring increase in fluorescence intensity at 5 umol/L incubated for 2 hrs by flow cytometry relative to C9C; conditions: k562, 2 h, 5 µM, dose 5 µmol/L
[2] = Drug uptake in human KU812 cells assessed as membrane permeability at 5 umol/L incubated for 2 hrs by flow cytometry relative to C9C; conditions: ku812, 2 h, 5 µM, dose 5 µmol/L
[3] = Drug uptake in human K562 cells assessed as membrane permeability at 5 umol/L incubated for 2 hrs by flow cytometry relative to C9C; conditions: k562, 2 h, 5 µM, dose 5 µmol/L
[4] = Drug uptake in human KU812 cells assessed as membrane penetration by measuring increase in fluorescence intensity at 5 umol/L incubated for 2 hrs by flow cytometry relative to C9C; conditions: ku812, 2 h, 5 µM, dose 5 µmol/L

| fold change (FC) [1] | Drug uptake [2] | Drug uptake [3] | fold change (FC) [4] | SMILES |
| --- | --- | --- | --- | --- |
| 2.8 | – | – | – | CC(C)C[C@@H]1NC(=O)[C@H](Cc2c[nH]c3ccccc23)NC(=O)[C@H](Cc2ccccc2)NC(=O)[C@H](Cc2ccccc2)NC(=O)CNC(=O)[C@H](CCCCN)NC(=O)[C@H](CCC(=O)O)NC(=O)[C@H](CO)NC(=O)[C@H](CCCNC(=N)N)NC1=O (cyclo(EKGFFWLRS)) |
| – | 65% | 65% | – | CC(C)C[C@H](NC(=O)[C@H](Cc1csc2ccccc12)NC(=O)[C@H](Cc1ccc(O)cc1)NC(=O)[C@H](Cc1ccccc1)NC(=O)[C@H](CCCNC(=N)N)NC(=O)[C@@H](N)CS)C(=O)N[C@@H](CCCNC(=N)N)C(=O)N[C@@H](CO)C(=O)N[C@@H](CS)C(=O)O (H-CRFY[Bta]LRSC-OH) |
| 5.04 | – | – | 2.69 | CC(C)C[C@@H]1NC(=O)[C@H](Cc2csc3ccccc23)NC(=O)[C@H](Cc2ccc(O)cc2)NC(=O)[C@H](Cc2ccccc2)NC(=O)[C@H](CCCNC(=N)N)NC(=O)[C@H](CCCCN)NC(=O)[C@H](CCC(=O)O)NC(=O)[C@H](CO)NC(=O)[C@H](CCCNC(=N)N)NC1=O (cyclo([Bta]LRSEKRFY)) |
| 5.28 | – | – | 5.65 | CC(C)C[C@@H]1NC(=O)[C@H](Cc2c[nH]c3ccccc23)NC(=O)[C@H](Cc2ccccc2)NC(=O)[C@H](Cc2ccccc2)NC(=O)[C@H](CCCNC(=N)N)NC(=O)[C@H](CCCCN)NC(=O)[C@H](CCC(=O)O)NC(=O)[C@H](CO)NC(=O)[C@H](CCCNC(=N)N)NC1=O (cyclo(EKRFFWLRS)) |
